Experimental data: ChEMBL document CHEMBL1150311, “4-Methyl-5-phenyl triazoles as selective inhibitors of 11beta-hydroxysteroid dehydrogenase type I” (Bioorg Med Chem Lett, 2008)

Assays:
[1] = molecular target: 11-beta-hydroxysteroid dehydrogenase 1 (Homo sapiens, UniProt P28845); experiment: Inhibition of human 11beta HSD1 by SPA assay
[2] = molecular target: 11-beta-hydroxysteroid dehydrogenase 1 (Mus musculus, UniProt P50172); experiment: Inhibition of mouse 11beta HSD1 by SPA assay
[3] = molecular target: T1, 11-beta-hydroxysteroid dehydrogenase type 2 (Homo sapiens, UniProt P80365); experiment: Inhibition of human 11beta HSD2
T1 sequence (P80365 whole entry): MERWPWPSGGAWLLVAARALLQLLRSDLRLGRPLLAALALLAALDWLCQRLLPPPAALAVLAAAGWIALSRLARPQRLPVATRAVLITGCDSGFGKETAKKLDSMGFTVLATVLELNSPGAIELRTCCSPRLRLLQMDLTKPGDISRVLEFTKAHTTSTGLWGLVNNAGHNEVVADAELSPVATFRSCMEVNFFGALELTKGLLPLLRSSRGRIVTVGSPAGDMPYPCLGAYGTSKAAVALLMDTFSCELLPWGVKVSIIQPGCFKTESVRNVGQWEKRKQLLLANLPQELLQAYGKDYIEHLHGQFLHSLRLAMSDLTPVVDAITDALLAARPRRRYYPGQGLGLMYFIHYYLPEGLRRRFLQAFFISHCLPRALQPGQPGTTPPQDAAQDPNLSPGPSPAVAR

[4] = molecular target: T2, 11-beta-hydroxysteroid dehydrogenase type 2 (Mus musculus, UniProt P51661); experiment: Inhibition of mouse 11beta HSD2
T2 sequence (P51661 whole entry): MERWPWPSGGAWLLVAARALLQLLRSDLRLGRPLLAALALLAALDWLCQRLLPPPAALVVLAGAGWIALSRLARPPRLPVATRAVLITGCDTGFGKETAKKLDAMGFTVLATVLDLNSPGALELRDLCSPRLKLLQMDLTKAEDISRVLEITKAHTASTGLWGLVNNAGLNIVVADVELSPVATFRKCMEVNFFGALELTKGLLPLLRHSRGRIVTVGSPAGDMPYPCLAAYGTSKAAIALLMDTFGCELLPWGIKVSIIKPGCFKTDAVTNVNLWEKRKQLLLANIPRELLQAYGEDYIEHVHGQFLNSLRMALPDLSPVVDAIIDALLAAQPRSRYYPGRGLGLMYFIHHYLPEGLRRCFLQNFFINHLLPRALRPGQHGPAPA

[5] = test system: Mus musculus; experiment: Inhibition of [3H]cortisone to [3H]cortisol conversion in mouse at 10 mg/kg, po administered as single dose after 1 hr; format: functional
[6] = test system: Mus musculus; experiment: Inhibition of [3H]cortisone to [3H]cortisol conversion in mouse at 10 mg/kg, po administered as single dose after 4 hrs; format: functional

Chain of 11-beta-hydroxysteroid dehydrogenase 1 (Mus musculus, UniProt P50172) (P50172 whole entry): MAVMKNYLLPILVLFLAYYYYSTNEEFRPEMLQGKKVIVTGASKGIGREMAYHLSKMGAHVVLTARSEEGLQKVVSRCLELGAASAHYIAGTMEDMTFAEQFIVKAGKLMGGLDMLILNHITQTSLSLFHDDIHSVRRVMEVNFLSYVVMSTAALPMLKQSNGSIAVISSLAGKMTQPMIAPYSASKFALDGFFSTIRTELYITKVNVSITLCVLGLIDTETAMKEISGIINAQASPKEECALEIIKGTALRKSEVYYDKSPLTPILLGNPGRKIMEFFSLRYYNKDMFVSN
Chain of 11-beta-hydroxysteroid dehydrogenase 1 (Homo sapiens, UniProt P28845) (P28845 whole entry): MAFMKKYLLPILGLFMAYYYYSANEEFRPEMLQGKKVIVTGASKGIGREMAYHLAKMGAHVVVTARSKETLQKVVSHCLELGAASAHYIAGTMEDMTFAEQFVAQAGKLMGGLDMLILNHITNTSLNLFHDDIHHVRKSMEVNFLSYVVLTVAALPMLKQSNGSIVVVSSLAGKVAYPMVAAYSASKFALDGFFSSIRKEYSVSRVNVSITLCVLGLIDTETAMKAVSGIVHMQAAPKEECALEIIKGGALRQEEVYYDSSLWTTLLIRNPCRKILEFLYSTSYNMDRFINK

SMILES | IC50 [1] [nM] | IC50 [2] [nM] | IC50 [3] [µM] | IC50 [4] [µM] | inhibition in vivo at 10 mg/kg [5] [%] | inhibition in vivo at 10 mg/kg [6] [%]
Cc1ccccc1-c1nnc(C2(c3ccc(Cl)cc3)CCC2)n1C | 5 | 21 | > 4 | > 4 | 9 | 1
Cn1c(-c2ccc(OC3CC3)cc2)nnc1C1(c2ccc(Cl)cc2)CCC1 | 10 | 2.2 | > 4 | > 4 | 95 | 95
Clc1ccc(C2(c3nnc4n3CCCCCC4)CCC2)cc1 | 1.3 | – | > 4 | > 4 | – | –
CSc1nccn1-c1ccc(-c2nnc(C3(c4ccc(Cl)cc4)CCC3)n2C)c(Cl)c1 | 3.9 | 3.9 | – | > 4 | – | –
Cn1c(-c2ccc(Cc3ccccc3)cc2)nnc1C1(c2ccc(Cl)cc2)CCC1 | 68 | 18 | > 4 | > 4 | 20 | -4
Cn1c(-c2ccc(Oc3ccccc3)cc2)nnc1C1(c2ccc(Cl)cc2)CCC1 | 26 | 3.7 | > 4 | > 4 | – | –
Cn1c(-c2ccc(OC(F)(F)F)cc2)nnc1C1(c2ccc(Cl)cc2)CCC1 | 13 | 6.9 | > 4 | > 4 | 64 | 27
Cn1c(-c2ccc(Cl)cc2Cl)nnc1C1(c2ccc(Cl)cc2)CCC1 | 1 | 13 | > 4 | > 4 | – | –
Cc1nc2ccccc2n1-c1ccc(-c2nnc(C3(c4ccc(Cl)cc4)CCC3)n2C)c(Cl)c1 | 12 | 57 | – | > 4 | – | –
Cn1c(-c2ccc(F)cc2)nnc1C1(c2ccc(Cl)cc2)CCC1 | 1.5 | 101 | > 4 | > 4 | – | –
Cn1c(-c2ccc(-c3ccc(F)cc3)cc2)nnc1C1(c2ccc(Cl)cc2)CCC1 | 11 | 9.1 | > 4 | > 4 | – | –
Cn1c(-c2ccc(C(C)(C)C)cc2)nnc1C1(c2ccc(Cl)cc2)CCC1 | 14 | 1.8 | > 4 | > 4 | – | –
Cn1c(-c2cccc(OC(F)(F)F)c2)nnc1C1(c2ccc(Cl)cc2)CCC1 | 2.2 | 36 | > 4 | > 4 | – | –
Cn1c(-c2ccc(I)cc2)nnc1C1(c2ccc(Cl)cc2)CCC1 | 3.8 | 8.2 | > 4 | > 4 | – | –
Cn1c(-c2ccc(-n3cccc3)cc2)nnc1C1(c2ccc(Cl)cc2)CCC1 | 3 | 5.4 | > 4 | > 4 | 41 | 28
Cn1c(-c2ccc(-n3ccnc3)cc2)nnc1C1(c2ccc(Cl)cc2)CCC1 | 3.5 | 46 | > 4 | > 4 | 79 | 44
Cn1c(-c2ccccc2OC(F)(F)F)nnc1C1(c2ccc(Cl)cc2)CCC1 | 2.3 | 4.1 | > 4 | > 4 | 59 | 44
Cn1c(-c2cccc(Cl)c2)nnc1C1(c2ccc(Cl)cc2)CCC1 | 1 | 34 | > 4 | > 4 | 24 | 12

Second part, led by results:

IC50 [1] [nM] | IC50 [2] [nM] | IC50 [3] [µM] | IC50 [4] [µM] | SMILES | inhibition in vivo at 10 mg/kg [5] [%] | inhibition in vivo at 10 mg/kg [6] [%]
2 | 4 | > 4 | > 4 | Cn1c(-c2ccccc2C(F)(F)F)nnc1C1(c2ccc(Cl)cc2)CCC1 | 73 | 63
44 | 3.1 | > 4 | > 4 | Cn1c(-c2ccc(-c3nccs3)cc2)nnc1C1(c2ccc(Cl)cc2)CCC1 | 92 | 67
0.28 | 3.5 | > 4 | > 4 | Cn1c(-c2ccccc2Cl)nnc1C1(c2ccc(Cl)cc2)CCC1 | 86 | 73
11 | 4 | > 4 | > 4 | Cn1c(-c2ccc(-c3ccccc3)cc2)nnc1C1(c2ccc(Cl)cc2)CCC1 | 86 | 90
3 | 42 | > 4 | > 4 | COc1ccc(-c2nnc(C3(c4ccc(Cl)cc4)CCC3)n2C)cc1F | 10 | -1
0.34 | 19 | > 4 | > 4 | Cn1c(-c2ccc(O)cc2)nnc1C1(c2ccc(Cl)cc2)CCC1 | 17 | 10
2 | 21 | > 4 | > 4 | Cn1c(-c2ccccc2F)nnc1C1(c2ccc(Cl)cc2)CCC1 | – | –
1.7 | 52 | > 4 | > 4 | Cn1c(-c2ccccc2)nnc1C1(c2ccc(Cl)cc2)CCC1 | 47 | 29
37 | 109 | > 4 | > 4 | Cn1c(-c2ccccc2)nnc1C12CC3CC(CC(C3)C1)C2 [FIG 1] | 85 | 47
2.7 | 7.8 | > 4 | > 4 | COc1ccccc1-c1nnc(C2(c3ccc(Cl)cc3)CCC2)n1C | 28 | 12
2.7 | 43 | > 4 | > 4 | Cn1c(-c2ccc(Cl)cc2)nnc1C1(c2ccc(Cl)cc2)CCC1 | 20 | 14
1.8 | 17 | > 4 | > 4 | Cn1c(-c2ccccc2O)nnc1C1(c2ccc(Cl)cc2)CCC1 | -2 | -2
6.9 | 7.2 | – | > 4 | Cc1cn(-c2ccc(-c3nnc(C4(c5ccc(Cl)cc5)CCC4)n3C)c(Cl)c2)c(C)n1 | – | –
9.3 | 26 | > 4 | > 4 | Cn1c(-c2ccc(C(F)(F)F)cc2)nnc1C1(c2ccc(Cl)cc2)CCC1 | – | –
– | – | > 3 | > 10 | C1CCc2nnc(C34CC5CC(CC(C5)C3)C4)n2CC1 | 31 | 21
4.3 | 56 | > 4 | > 4 | Cn1c(-c2cccc(-c3ccccc3)c2)nnc1C1(c2ccc(Cl)cc2)CCC1 | -2 | -2
2.2 | 163 | > 4 | > 4 | Cn1c(-c2cccc(F)c2)nnc1C1(c2ccc(Cl)cc2)CCC1 | – | –
1 | 19 | > 4 | > 4 | Cn1c(-c2cccc(O)c2)nnc1C1(c2ccc(Cl)cc2)CCC1 | – | –
